In patent publication US20240059688A1, “CONOLIDINE ANALOGUES AS SELECTIVE ACKR3 MODULATORS FOR THE TREATMENT OF CANCER” (Luxembourg Institute of Health (LIH), priority 2020, published 2024):

Legend:
Assay type in all cases: cell-based
ACKR3 = ACKR3 (Homo sapiens, UniProt P25106); experiment: ACKR3-mediated uptake of Cy5-labeled BAM22 in U87-ACKR3 cells (imaging flow cytometry); design: expressed in transfected cells; host or cells: U87-ACKR3 (ACKR3-negative U87 as control); settings: concentration-dependent, FIG. 7
ACKR3, sequence (P25106 whole entry): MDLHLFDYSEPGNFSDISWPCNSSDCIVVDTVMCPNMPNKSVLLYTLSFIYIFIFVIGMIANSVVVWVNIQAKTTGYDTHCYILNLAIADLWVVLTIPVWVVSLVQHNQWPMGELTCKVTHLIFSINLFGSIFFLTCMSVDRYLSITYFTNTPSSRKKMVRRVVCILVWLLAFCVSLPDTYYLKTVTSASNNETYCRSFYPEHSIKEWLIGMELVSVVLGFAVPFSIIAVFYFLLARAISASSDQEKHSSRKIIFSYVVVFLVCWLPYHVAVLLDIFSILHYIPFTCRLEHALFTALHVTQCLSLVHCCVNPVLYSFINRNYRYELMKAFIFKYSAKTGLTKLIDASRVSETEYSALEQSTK
Method: U87-ACKR3 cells were distributed into 96-well plates (2×10^5 cells per well in Opti-MEM). After 15-minute incubation at 37° C. with WW-1 or WW-12 or controls, Cy5-labeled BAM22 was added, incubated for 40 minutes at 37° C. and washed twice with FACS buffer. Dead cells were excluded using Zombie Green viability dye. Images of 1×10^4 in-focus living single cells were acquired with an ImageStream MKII imaging flow cytometer (Amnis, running on the INSPIRE Mark II software (EMD Millipore)) using 40× magnification (60× magnification for smNPCs). Samples were analyzed using Ideas6.2 software. The number of spots per cell was determined using a mask-based software wizard.

human CXCR4 = biological target: T1, human CXCR4 (Homo sapiens, UniProt P61073); experiment: CXCR4 β-arrestin recruitment assay (PathHunter); settings: human CXCR4-C2Cl2 cells, relative to CXCL-12
T1 construct: host or cells: C2C12
T1 sequence (P61073 whole entry): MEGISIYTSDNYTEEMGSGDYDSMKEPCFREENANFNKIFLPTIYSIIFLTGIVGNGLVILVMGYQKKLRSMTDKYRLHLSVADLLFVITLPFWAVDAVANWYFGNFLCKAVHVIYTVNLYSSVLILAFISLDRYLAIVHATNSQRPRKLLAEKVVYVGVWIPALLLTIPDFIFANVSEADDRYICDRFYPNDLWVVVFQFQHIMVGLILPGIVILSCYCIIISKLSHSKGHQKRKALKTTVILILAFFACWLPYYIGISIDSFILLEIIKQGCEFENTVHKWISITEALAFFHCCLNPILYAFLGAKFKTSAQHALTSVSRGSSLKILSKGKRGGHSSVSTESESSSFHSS
Method in brief: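 Agonist mode in PathHunter CHO cells expressing human ACKR3-β-arrestin-2, compounds added in DPBS/1% DMSO for 1.5 hr at 37° C, then detection 1 hr at room temperature, luminescence read. CXCR4 run in C2C12 cells with a 3 hr Cell Plating Reagent 4 preincubation. EC50 and % Emax from three-parameter fits, CXCL-12 as reference agonist; ≥2 independent experiments in duplicate.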

ADRA2BC = biological target: T2, ADRA2BC (Homo sapiens, UniProt P18825); experiment: GPCR β-arrestin screening (PathHunter gpcrMAX/orphanMAX), ADRA2BC; settings: conolidine 10 μM
T2 sequence (P18825 1-462): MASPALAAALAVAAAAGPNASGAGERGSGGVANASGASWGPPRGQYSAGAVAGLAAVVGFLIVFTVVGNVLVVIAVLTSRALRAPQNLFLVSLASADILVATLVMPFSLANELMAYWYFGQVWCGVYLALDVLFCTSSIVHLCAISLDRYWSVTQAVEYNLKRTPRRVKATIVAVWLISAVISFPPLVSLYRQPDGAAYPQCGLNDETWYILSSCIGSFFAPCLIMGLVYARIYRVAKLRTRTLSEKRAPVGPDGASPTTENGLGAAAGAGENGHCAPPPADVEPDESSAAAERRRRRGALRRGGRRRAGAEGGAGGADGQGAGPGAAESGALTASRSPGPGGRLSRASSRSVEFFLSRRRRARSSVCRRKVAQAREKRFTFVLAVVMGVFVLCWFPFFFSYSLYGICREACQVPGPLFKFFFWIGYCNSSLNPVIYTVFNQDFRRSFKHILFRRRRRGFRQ
Method: (§1) In an effort to identify the target of conolidine among the GPCR family, we undertook a large scale screening program using a β-arrestin recruitment assay based on β-galactosidase complementation (PathHunter, DiscoverX). Over 240 receptors were tested for their ability to be activated or inhibited by conolidine (10 μM) (data not shown). These included 168 GPCRs from the gpcrMAX panel, covering over 60 distinct receptor families such as adrenergic, dopamine, P2Y or serotonin and 74 GPCRs from the orphanMAX panel.

HRH2 = HRH2 (Homo sapiens, UniProt P25021); experiment: GPCR β-arrestin screening (PathHunter gpcrMAX/orphanMAX), HRH2; settings: conolidine 10 μM
HRH2, sequence (P25021 whole entry): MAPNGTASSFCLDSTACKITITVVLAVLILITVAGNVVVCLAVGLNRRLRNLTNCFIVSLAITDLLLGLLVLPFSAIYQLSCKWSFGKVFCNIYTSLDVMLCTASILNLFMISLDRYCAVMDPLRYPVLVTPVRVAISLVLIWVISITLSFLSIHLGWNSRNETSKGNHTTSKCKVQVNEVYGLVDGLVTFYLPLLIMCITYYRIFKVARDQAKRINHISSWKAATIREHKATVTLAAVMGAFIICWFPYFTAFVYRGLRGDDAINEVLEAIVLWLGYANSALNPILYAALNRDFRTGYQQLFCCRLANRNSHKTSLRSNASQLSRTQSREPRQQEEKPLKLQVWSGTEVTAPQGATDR
Method: as §1

[1] = biological target: T3, melatonin receptor 1B (MTNR1B) (Homo sapiens, UniProt P49286); experiment: GPCR β-arrestin screening (PathHunter gpcrMAX/orphanMAX), MTNR1B; settings: conolidine 10 μM
T3 sequence (P49286 1-362): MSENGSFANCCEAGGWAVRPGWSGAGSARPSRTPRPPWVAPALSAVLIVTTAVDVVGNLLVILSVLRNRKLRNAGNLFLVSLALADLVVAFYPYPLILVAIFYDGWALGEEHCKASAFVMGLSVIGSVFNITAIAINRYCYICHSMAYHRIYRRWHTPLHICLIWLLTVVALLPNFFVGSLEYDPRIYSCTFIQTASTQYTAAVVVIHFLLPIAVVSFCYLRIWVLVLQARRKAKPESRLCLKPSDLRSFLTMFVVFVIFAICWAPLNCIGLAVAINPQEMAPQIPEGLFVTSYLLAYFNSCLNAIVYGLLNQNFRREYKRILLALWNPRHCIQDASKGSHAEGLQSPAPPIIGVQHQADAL
Method: as §1

[2] = biological target: cannabinoid receptor 2 (CNR2) (Homo sapiens, UniProt P34972); experiment: GPCR β-arrestin screening (PathHunter gpcrMAX/orphanMAX), CNR2; settings: conolidine 10 μM
cannabinoid receptor 2 (CNR2), sequence (P34972 whole entry): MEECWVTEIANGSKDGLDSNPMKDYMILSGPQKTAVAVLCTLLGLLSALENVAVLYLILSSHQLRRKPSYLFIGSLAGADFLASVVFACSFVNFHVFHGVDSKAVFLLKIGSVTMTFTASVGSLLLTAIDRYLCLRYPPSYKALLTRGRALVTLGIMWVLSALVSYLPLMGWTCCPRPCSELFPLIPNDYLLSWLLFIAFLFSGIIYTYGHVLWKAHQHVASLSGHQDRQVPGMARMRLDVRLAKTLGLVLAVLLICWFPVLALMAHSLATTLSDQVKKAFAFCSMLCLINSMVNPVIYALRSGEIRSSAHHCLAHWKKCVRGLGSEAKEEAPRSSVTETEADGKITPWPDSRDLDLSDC
Method: as §1

[3] = biological target: T4, Mast cells G protein-coupled receptor-X2 (MRGPRX2) (Homo sapiens, UniProt Q96LB1); experiment: GPCR β-arrestin screening (PathHunter gpcrMAX/orphanMAX), MRGPRX2; settings: conolidine 10 μM
T4 sequence (Q96LB1 1-330): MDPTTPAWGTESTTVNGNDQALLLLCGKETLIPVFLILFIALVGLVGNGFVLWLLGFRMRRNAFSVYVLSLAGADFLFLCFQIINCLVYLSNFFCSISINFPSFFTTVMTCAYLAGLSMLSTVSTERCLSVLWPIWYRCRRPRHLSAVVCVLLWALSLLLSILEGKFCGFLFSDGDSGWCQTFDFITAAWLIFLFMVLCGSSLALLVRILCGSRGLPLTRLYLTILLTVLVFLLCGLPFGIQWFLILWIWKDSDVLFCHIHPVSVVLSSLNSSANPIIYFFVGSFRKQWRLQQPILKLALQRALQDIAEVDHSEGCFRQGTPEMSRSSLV
Method: as §1

Compound | inhibition of uptake of Cy5-labelled BAM22 by ACKR3 (ACKR3) | CXCR4 β-arrestin % CXCL-12Emax (n = 2) (human CXCR4) [%] | activity towards ADRA2BC in GPCR screening (ADRA2BC) | activity towards HRH2 in GPCR screening (HRH2) | activation of MTNR1B in GPCR screening [1] | activation of CNR2 in GPCR screening [2] | activation of MRGPRX2 in GPCR screening [3]
C/C=C1/CN(CCCCC)CC[C@H]1C(=O)c1cc2ccccc2[nH]1 [WW-12, [(3E,4R)-3-ethylidene-1-pentylpiperidin-4-yl](1H-indol-2-yl)methanone] | able to restrain the uptake | 4 |  |  |  |  | 
C/C=C1/CN2CC[C@H]1C(=O)c1[nH]c3ccccc3c1C2 [WW-1, (4E,5R)-4-ethylidene-1,4,5,7-tetrahydro-2,5-ethanoazocino[4,3-b]indol-6(3H)-one] | able to restrain the uptake | 3 | No activity was detected | No activity was detected | only partially activated | only partially activated | only partially activated
